Data as given in patent publication US20250344698A1, “A METHOD OF CONTROLLING WEEDS” (SYNGENTA CROP PROTECTION AG, priority 2022, published 2025).

Assays:
Assay type in all cases: in vivo
[1] = test system: Amaranthus palmeri population homozygous for a glycine at codon 128 in PPX2L ('128G'); test: Postemergence glasshouse test, dead or alive assessment, 128G population; conditions: 14 days after application; for Average % Survival of 14 repetitions: R128G
Text: (§1) The commercial standard PPO inhibitor fomesafen and compound 8 of the present application were applied to three Amaranthus palmeri populations in order to determine the impact of mutations at codon 128 in PPX2L from the wild-type arginine to a glycine or methionine.
(§2) Seeds were sown in seed trays containing ericaceous compost and covered with vermiculite. When approximately 1 inch in height plants were transplanted 1 per pot into 3 inch diameter pots containing ericaceous compost. The pots were watered and maintained in a glasshouse providing a 16 H photoperiod of 180 μmol m^−2 s^−1 with temperatures of 24° C. day and 18° C. night and 65% relative humidity until 3 inches tall at which point the herbicides were applied at the use rates specified in Table 1 below to 14 individual plants per rate of each of the biotypes.
(§3) All treatments were applied as dilutions in reverse osmosis water and with the commercial adjuvant Adigor® at 0.5% by volume. Prior to dilution with water compound 8 was initially dissolved to a 5% solution in a solvent mixture comprising 11.12% Emulsogen EL 360, 44.44% Dowanol DPM and 44.44% N-methyl pyrrolidone. Herbicide applications were carried out in a track sprayer with a flat fan nozzle applying the herbicide treatments at a rate of 200 L/ha^−1.
(§4) After treatment, the plants were watered and maintained in a glasshouse providing a 16 H photoperiod of 180 μmol m^−2 s^−1 with temperatures of 24° C. day and 18° C. night and 65% relative humidity until 14 days after application at which point they were assessed on a ‘dead or alive’ basis. The plants still alive at this point were classed as surviving the herbicide application and the averaged results of this assessment are presented in Table 1.

[2] = test system: Amaranthus palmeri known PPO inhibitor sensitive population ('Sensitive'); test: Postemergence glasshouse test, dead or alive assessment, PPO inhibitor sensitive population; conditions: 14 days after application; for use rate achieving complete control (i.e. no surviving plants): 'Sensitive' population, postemergence; for Average % Survival of 14 repetitions: Sensitive
Text: as §1, §2, §3, §4

[3] = test system: Amaranthus palmeri population homozygous for a methionine at codon 128 in PPX2L ('128M'); test: Postemergence glasshouse test, dead or alive assessment, 128M population; conditions: 14 days after application; for use rate achieving complete control (i.e. no surviving plants): '128M' population, postemergence; for Average % Survival of 14 repetitions: R128M
Text: as §1, §2, §3, §4

Compound	Average % Survival of 14 repetitions ([1]; 0.25 g ai/ha^−1 postemergence)	Average % Survival of 14 repetitions ([1]; 0.5 g ai/ha^−1 postemergence)	Average % Survival of 14 repetitions ([1]; 1 g ai/ha^−1 postemergence)	Average % Survival of 14 repetitions ([1]; 2 g ai/ha^−1 postemergence)	Average % Survival of 14 repetitions ([1]; 4 g ai/ha^−1 postemergence)	Average % Survival of 14 repetitions ([1]; 8 g ai/ha^−1 postemergence)	Average % Survival of 14 repetitions ([1]; 16 g ai/ha^−1 postemergence)	Average % Survival of 14 repetitions ([1]; 32 g ai/ha^−1 postemergence)	Average % Survival of 14 repetitions ([1]; 64 g ai/ha^−1 postemergence)	Average % Survival of 14 repetitions ([1]; 128 g ai/ha^−1 postemergence)	use rate achieving complete control (i.e. no surviving plants) [2]	Average % Survival of 14 repetitions ([2]; 0.25 g ai/ha^−1 postemergence)	Average % Survival of 14 repetitions ([2]; 0.5 g ai/ha^−1 postemergence)	Average % Survival of 14 repetitions ([2]; 1 g ai/ha^−1 postemergence)	Average % Survival of 14 repetitions ([2]; 2 g ai/ha^−1 postemergence)	Average % Survival of 14 repetitions ([2]; 4 g ai/ha^−1 postemergence)	Average % Survival of 14 repetitions ([2]; 8 g ai/ha^−1 postemergence)	Average % Survival of 14 repetitions ([2]; 16 g ai/ha^−1 postemergence)	Average % Survival of 14 repetitions ([2]; 32 g ai/ha^−1 postemergence)	Average % Survival of 14 repetitions ([2]; 64 g ai/ha^−1 postemergence)	other results
CCOC(=O)C1(C)CC(c2cc(-n3c(=O)cc(C(F)(F)F)n(C)c3=O)c(F)cc2Cl)=NO1 (stereo not drawn) [Compound 8, 3-(2-chloro-4-fluoro-5-(3-methyl-2,6-dioxo-4-trifluoromethyl-3,6-dihydropyrimidin-1(2H)-yl)phenyl)-5-methyl-4,5-dihydroisoxazole-5-carboxylic acid ethyl ester]	100%	100%	100%	100%	93%	50%	0%	0%	0%	0%	8 g ai/ha^−1	100%	100%	50%	43%	14%	0%	0%	0%	0%	use rate achieving complete control (i.e. no surviving plants) ([1]; '128G' population, postemergence): 16 g ai/ha^−1; Average % Survival of 14 repetitions ([2]; 128 g ai/ha^−1 postemergence): 0%; use rate achieving complete control (i.e. no surviving plants) [3]: 16 g ai/ha^−1; Average % Survival of 14 repetitions ([3]; 0.25 g ai/ha^−1 postemergence): 100%; Average % Survival of 14 repetitions ([3]; 0.5 g ai/ha^−1 postemergence): 100%; Average % Survival of 14 repetitions ([3]; 1 g ai/ha^−1 postemergence): 100%; Average % Survival of 14 repetitions ([3]; 2 g ai/ha^−1 postemergence): 100%; Average % Survival of 14 repetitions ([3]; 4 g ai/ha^−1 postemergence): 79%; Average % Survival of 14 repetitions ([3]; 8 g ai/ha^−1 postemergence): 57%; Average % Survival of 14 repetitions ([3]; 16 g ai/ha^−1 postemergence): 0%; Average % Survival of 14 repetitions ([3]; 32 g ai/ha^−1 postemergence): 0%; Average % Survival of 14 repetitions ([3]; 64 g ai/ha^−1 postemergence): 0%; Average % Survival of 14 repetitions ([3]; 128 g ai/ha^−1 postemergence): 0%
CS(=O)(=O)NC(=O)c1cc(Oc2ccc(C(F)(F)F)cc2Cl)ccc1[N+](=O)[O-] [Fomesafen]	100%	100%	100%	100%	100%	100%	100%	93%	36%	36%	8 g ai/ha^−1	100%	100%	93%	71%	14%	0%	0%	0%	0%	individuals killed ([1]; '128G' population, 128 g ai/ha^−1): 5/14; Average % Survival of 14 repetitions ([2]; 128 g ai/ha^−1 postemergence): 0%; use rate achieving complete control (i.e. no surviving plants) [3]: 128 g ai/ha^−1; Average % Survival of 14 repetitions ([3]; 0.25 g ai/ha^−1 postemergence): 100%; Average % Survival of 14 repetitions ([3]; 0.5 g ai/ha^−1 postemergence): 100%; Average % Survival of 14 repetitions ([3]; 1 g ai/ha^−1 postemergence): 100%; Average % Survival of 14 repetitions ([3]; 2 g ai/ha^−1 postemergence): 100%; Average % Survival of 14 repetitions ([3]; 4 g ai/ha^−1 postemergence): 100%; Average % Survival of 14 repetitions ([3]; 8 g ai/ha^−1 postemergence): 100%; Average % Survival of 14 repetitions ([3]; 16 g ai/ha^−1 postemergence): 93%; Average % Survival of 14 repetitions ([3]; 32 g ai/ha^−1 postemergence): 43%; Average % Survival of 14 repetitions ([3]; 64 g ai/ha^−1 postemergence): 21%; Average % Survival of 14 repetitions ([3]; 128 g ai/ha^−1 postemergence): 0%
